According to US20030199540A1, “Fluoroalkyoxybenzylamino derivatives of nitrogen containing heterocycles” (priority 1991, published 2003):

Row | Compound | melting point
1 | CC(C)(C)c1ccc(OC(F)(F)F)c(CN[C@H]2CCCN[C@H]2c2ccccc2)c1.Cl | 262 to 264 °C
2 | CC(C)c1ccc(OCC(F)(F)F)c(CN[C@H]2CCCN[C@H]2c2ccccc2)c1.Cl | > 280 °C
3 | Cl.FC(F)Oc1ccc(OC(F)F)c(CN[C@H]2CCCN[C@H]2c2ccccc2)c1 | 238 to 239 °C
4 | CC(C)(C)c1ccc(OC(F)F)c(CN[C@H]2CCCN[C@H]2c2ccccc2)c1.Cl | 263 to 264 °C (dec.)
5 | CC(C)Oc1ccc(OC(F)(F)F)cc1CN[C@H]1CCCN[C@H]1c1ccccc1.Cl | 245 to 246 °C (dec.)
6 | CCOc1ccc(OC(F)(F)F)cc1CN[C@H]1CCCN[C@H]1c1ccccc1.Cl | > 275 °C (dec.)
7 | CC(C)c1ccc(OC(F)F)c(CN[C@H]2CCCN[C@H]2c2ccccc2)c1.Cl | 245 to 247 °C (dec.)
8 | CC(=O)Nc1ccc(OCC(F)(F)F)c(CN[C@H]2CCCN[C@H]2c2ccccc2)c1.Cl | > 270 °C
9 | Cc1ccc(OC(F)F)c(CN[C@H]2CCCN[C@H]2c2ccccc2)c1.Cl | > 275 °C
10 | Cl.FC(F)(F)Oc1ccccc1CN[C@H]1CCCN[C@H]1c1ccccc1 | 231 to 233 °C
